{"source": "patent US20190029301A1", "about": "“USE OF LONG-TERM FASTING MIMICKING AS DIETARY TREATMENT FOR MULTIPLE MYELOMA AND OTHER CANCERS” (UNIVERSITY OF SOUTHERN CALIFORNIA, priority 2016, published 2019)", "key": {"[1]": {"settings": "Biaxin competes for the liver detoxification system that inactivates dexamethasone; cited from earlier work"}, "[2]": {"assay": "side effects / peripheral neuropathy in the treated multiple myeloma patient", "assay_type": "in vivo, human", "experimental": "The patient had previously only used IV bortezomib, since it had been effective up to that point. Resistance to bortezomib is thought to result from overproduction of proteosomal subunits, that then require a higher concentration of drug before enough subunits are blocked to reduce the degradation of misfolded myeloma antibodies. The highest recommended dose of bortezomib is 1.3 mg/m^2, since the next higher dose of 1.7 mg/m^2 regularly produces grade 3-4 peripheral neuropathy. […] The patient reasoned that reducing the toxicity of bortezomib by using SubQ rather than IV and using the FMED to induce protective stress-resistance pathways in their neural and supporting glial cells might allow the use of “toxic” doses of bortezomib. […] The first two cycles were performed to verify whether the approach worked. […] Since the “toxic” bortezomib dose was essentially monotherapy, a different IMID was added for a third cycle in the hope that the patient's MM cells would be sensitive and one would be treating with at least two drugs. One third of patients resistant to lenalidomide respond to pomalidomide, which was thus added during the third cycle."}, "[3]": {"settings": "cited from earlier work"}, "multiple myeloma [4]": {"test_system": "multiple myeloma", "assay": "free kappa light chain tumor marker in a multiple myeloma patient (case report)", "assay_type": "in vivo, human", "settings": "for response of free kappa light chain tumor marker / myeloma cells to the regimen: single patient, successive regimens 2006-2012 and later"}, "multiple myeloma [5]": {"test_system": "multiple myeloma", "settings": "cited from earlier work"}, "[6]": {"settings": "SubQ compared with IV bortezomib"}}}
{"smiles": "CC[C@H]1OC(=O)[C@H](C)[C@@H](O[C@H]2C[C@@](C)(OC)[C@@H](O)[C@H](C)O2)[C@H](C)[C@@H](O[C@@H]2O[C@H](C)C[C@H](N(C)C)[C@H]2O)[C@](C)(OC)C[C@@H](C)C(=O)[C@H](C)[C@@H](O)[C@]1(C)O", "note": "[Biaxin]", "values": [{"measurement": "half-life of dexamethasone", "setting": "[1]", "value": "increases"}]}
{"smiles": "CC(C)C[C@H](NC(=O)[C@H](Cc1ccccc1)NC(=O)c1cnccn1)B(O)O", "note": "[bortezomib]", "values": [{"measurement": "side-effects", "setting": "[2]; subcutaneous bortezomib 1.7 mg/m^2 with FMED", "value": "minimal side-effects"}, {"measurement": "peripheral neuropathy progression", "setting": "[2]; three cycles of SubQ \"toxic\" bortezomib + FMED (pomalidomide added in third cycle)", "value": "only minor progression"}, {"measurement": "side effects of SubQ versus IV administration", "setting": "[3]; [6]", "value": "reduced side effects"}, {"measurement": "peripheral neuropathy grade", "setting": "[3]; dose of 1.7 mg/m^2", "value": "3-4"}, {"measurement": "tumor markers response", "setting": "multiple myeloma [4]; SubQ bortezomib at \"toxic\" dose 1.7 mg/m^2 combined with FMED, FIG. 3", "value": "rapid drop"}, {"measurement": "bortezomib sensitivity", "setting": "multiple myeloma [4]; subcutaneous bortezomib 1.7 mg/m^2 with FMED, bortezomib-resistant patient", "value": "restore bortezomib sensitivity"}, {"measurement": "effectiveness of SubQ versus IV administration", "setting": "multiple myeloma [5]; [6]", "value": "as effective as IV bortezomib"}]}
{"smiles": "CC(C)C[C@H](NC(=O)[C@H](CCc1ccccc1)NC(=O)CN1CCOCC1)C(=O)N[C@@H](Cc1ccccc1)C(=O)N[C@@H](CC(C)C)C(=O)[C@@]1(C)CO1", "note": "[carfilzomib]", "values": [{"measurement": "response of free kappa light chain tumor marker / myeloma cells to the regimen", "setting": "multiple myeloma [4]", "value": "ineffective"}]}
{"smiles": "Nc1cccc2c1C(=O)N(C1CCC(=O)NC1=O)C2=O", "note": "(centres unmarked) [pomalidomide]", "values": [{"measurement": "fraction of patients resistant to lenalidomide that respond", "setting": "multiple myeloma [5]; lenalidomide-resistant patients", "value": "One third"}]}
{"smiles": "Nc1cccc2c1CN(C1CCC(=O)NC1=O)C2=O", "note": "(centres unmarked) [revlimid, lenalidomide]", "values": [{"measurement": "response of free kappa light chain tumor marker / myeloma cells to the regimen", "setting": "multiple myeloma [4]", "value": "developed resistance"}]}
